Calls of active or inactive are those of the source.
Legend:
[1] = molecular target: G-protein coupled receptor 35 (Homo sapiens, UniProt Q9HC97); experiment: inhibition of zaprinast-stimulated GPR35 beta-arrestin translocation – imaging, U2OS, beta-arrestin-GFP, zaprinast agonist, primary screen (AID 2058); format: functional;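 note: antagonist potency meaning inhibition of agonist-induced arrestin redistribution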
[2] = HEK-293T viability loss after treatment – luminescence, T-cell screen hits, cytotoxicity control for TCR NF-kB inhibitor project, dose response (AID 489026); format: functional, cell-based;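 note: cells exposed to compound about 14 hours before the viability readout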
[3] = molecular target: T1, Microphthalmia-associated transcription factor (Homo sapiens, UniProt O75030); experiment: reducers of TRPM1 reporter luminescence, concentration series – cell-based, SK-MEL-5, cherry-picked, set 3, MITF inhibitor project, dose response (AID 493073); format: functional;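 note: SK-MEL-5 melanoma cells with luciferase driven by the MITF target TRPM1 promoter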
T1 sequence (O75030 whole entry): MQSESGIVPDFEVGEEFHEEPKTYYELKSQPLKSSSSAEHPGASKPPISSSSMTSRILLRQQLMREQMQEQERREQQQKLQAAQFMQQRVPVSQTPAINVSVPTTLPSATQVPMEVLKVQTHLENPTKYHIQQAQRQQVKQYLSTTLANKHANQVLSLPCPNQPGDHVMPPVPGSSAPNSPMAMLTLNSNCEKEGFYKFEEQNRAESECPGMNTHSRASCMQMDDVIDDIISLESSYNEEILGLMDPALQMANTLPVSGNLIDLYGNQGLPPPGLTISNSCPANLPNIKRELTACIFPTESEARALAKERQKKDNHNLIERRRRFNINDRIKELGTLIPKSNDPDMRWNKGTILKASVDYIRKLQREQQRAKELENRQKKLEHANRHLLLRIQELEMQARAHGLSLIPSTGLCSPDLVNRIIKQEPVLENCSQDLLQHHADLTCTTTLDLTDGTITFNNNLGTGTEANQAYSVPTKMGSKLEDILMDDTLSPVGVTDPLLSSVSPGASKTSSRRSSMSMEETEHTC

A-375 = experiment: proliferation inhibition in MITF-low A375 cells – cell-based, cherry-pick samples, set 2, counter-screen for MITF modulator project, dose response (AID 540335); format: functional; details: Homo sapiens
[4] = molecular target: COUP transcription factor 2 (Homo sapiens, UniProt P24468); experiment: Luminescence-based cell-based high throughput dose response assay to identify inhibitors of COUP-TFII (NR2F2).; format: functional;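 note: HEK293 cells transiently cotransfected with COUP-TFII expression vector and reporter; luciferase reporter luminescence driven by COUP-TFII from the pX2-168 reporter plasmid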
[5] = system: Streptococcus sp. 'group A'; experiment: Streptococcus pyogenes SK(-)GAS viability under kanamycin – luminescence, BacTiterGlo, confirmation, counter-screen for streptokinase expression inhibitor project, dose response (AID 1900); format: functional, organism-based
Streptokinase A = molecular target: T2, Streptokinase A (Streptococcus pyogenes serotype M1, UniProt P10520); experiment: viability-normalized secreted streptokinase activity reduction – plasminogen activation absorbance, OD405, dose response (AID 1914); format: functional, Streptococcus pyogenes M1 GAS;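 note: secreted streptokinase activity via plasminogen activation per viability signal from cell pellet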
T2 sequence (P10520 whole entry): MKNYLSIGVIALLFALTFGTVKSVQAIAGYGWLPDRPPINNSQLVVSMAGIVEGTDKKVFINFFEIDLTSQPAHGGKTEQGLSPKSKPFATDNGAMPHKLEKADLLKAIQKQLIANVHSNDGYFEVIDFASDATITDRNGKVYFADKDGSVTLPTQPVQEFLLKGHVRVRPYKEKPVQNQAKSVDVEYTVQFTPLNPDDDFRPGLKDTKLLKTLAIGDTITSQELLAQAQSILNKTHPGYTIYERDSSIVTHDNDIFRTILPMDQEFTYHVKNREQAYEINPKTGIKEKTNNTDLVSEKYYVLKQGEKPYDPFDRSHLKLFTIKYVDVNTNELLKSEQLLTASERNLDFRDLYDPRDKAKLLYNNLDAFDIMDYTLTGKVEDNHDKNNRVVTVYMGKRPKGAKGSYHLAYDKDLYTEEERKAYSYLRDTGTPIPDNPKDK

Streptococcus = experiment: GAS UMAA2166 growth inhibition – luminescence, BacTiterGlo, counter-screen for streptokinase expression inhibitor project, dose response (AID 1915); format: functional, organism-based;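 note: potency for reduction of bacterial viability or growth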
[6] = molecular target: Disintegrin and metalloproteinase domain-containing protein 17 (Homo sapiens, UniProt P78536); experiment: exosite inhibitors of ADAM17, dose response, biochemical (AID 743260)
[7] = inhibition of ADAM10 peptide cleavage – biochemical, FRET peptide substrate, recombinant human ADAM10, selectivity assay for ADAM17 exosite inhibitor project, dose response (AID 743259);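 note: ADAM10 enzyme cleaving a FRET peptide substrate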
[8] = viability loss in THP-1 monocytes – THP-1 cells, cytotoxicity control for Vif-APOBEC3G degradation inhibitor project, dose response (AID 1117359); format: functional; details: THP-1
[9] = luciferase reporter signal suppression in cells – H4 neuroglioma cells, luminescence, dose response (AID 1990); format: functional, cell-based
[10] = Luminescence Cell-Based Dose Response HTS to Identify Inhibitors of 5'UTR Stem-Loop Driven Prion Protein mRNA Translation in H4 Neuroglioblastoma Cells. [Related pubchem assays: 1827 (Project Summary), 1813 (Primary HTS)]; format: functional
[11] = alpha-synuclein stem-loop luciferase translation blockers – H4 neuroglioma cells, luminescence, confirmation (AID 1988); format: functional, cell-based
Cytochrome P450 2D6 = Cytochrome P450 2D6 (Homo sapiens, UniProt P10635);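 note: CYP2D6 member of a cytochrome P450 panel assay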
Beta-lactamase [12] = molecular target: Beta-lactamase (Salmonella choleraesuis (strain SC-B67), UniProt Q5J463); experiment: Epi-absorbance-based counterscreen for selective VIM-2 inhibitors: dose response biochemical high throughput screening assay to identify inhibitors of TEM-1 serine-beta-lactamase.
Beta-lactamase [13] = molecular target: T3, Beta-lactamase (Pseudomonas aeruginosa, UniProt Q79MP6); experiment: inhibition of IMP-1 beta-lactamase activity – biochemical, epi-absorbance, selectivity assay for VIM-2 inhibitor project, dose response (AID 1920)
Beta-lactamase [14] = molecular target: T3, Beta-lactamase; experiment: […] counterscreen for selective VIM-2 inhibitors: dose response biochemical high throughput screening assay to identify inhibitors of IMP-1 metallo-beta-lactamase.
[15] = molecular target: NAD-dependent protein deacylase sirtuin-5, mitochondrial (Homo sapiens, UniProt Q9NXA8); experiment: sirtuin-5 deacylation blockers, concentration series – biochemical, fluorescence imaging, cherry-pick, set 5, dose response (AID 720591);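 note: desuccinylation of succinyl peptide AMC substrate read as fluorescence after trypsin release; potency of inhibitors that lower fluorescence and may act on trypsin instead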
Galanin receptor type 3 = Galanin receptor type 3 (Homo sapiens, UniProt O60755); experiment: Fluorescence-based cell-based primary high throughput dose response assay to identify antagonists of the Galanin Receptor 3 (GalR3).; format: functional
cells [16] = format: functional, cell-based; details: HEK-CNG
[17] = molecular target: Protein-tyrosine kinase 2-beta (Homo sapiens, UniProt Q14289);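 note: potency of inhibitors of PYK2 kinase phosphorylation of poly-GT substrate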
[18] = HGIII-sPLA2 enzyme inhibition potency – biochemical, QFRET, IC50, dose response (AID 743457);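 note: green fluorescence rise as the enzyme cleaves BODIPY PC-A2 in liposomes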
cells [19] = format: functional, cell-based
[20] = molecular target: T4, Trace amine-associated receptor 1 (Homo sapiens, UniProt Q96RJ0); experiment: Fluorescence-based cell-based high throughput dose response assay to identify agonists of the human trace amine associated receptor 1 (TAAR1).; format: functional
T4 sequence (Q96RJ0 whole entry): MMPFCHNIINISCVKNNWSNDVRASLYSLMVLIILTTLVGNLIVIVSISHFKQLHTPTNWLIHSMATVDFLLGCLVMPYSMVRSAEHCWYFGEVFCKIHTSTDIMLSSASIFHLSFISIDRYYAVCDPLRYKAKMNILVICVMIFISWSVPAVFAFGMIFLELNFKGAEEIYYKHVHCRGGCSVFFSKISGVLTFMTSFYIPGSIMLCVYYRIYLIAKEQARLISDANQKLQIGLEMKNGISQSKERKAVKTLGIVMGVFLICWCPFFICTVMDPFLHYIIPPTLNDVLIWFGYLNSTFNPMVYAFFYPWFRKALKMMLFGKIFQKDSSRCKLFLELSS

[21] = molecular target: T4, Trace amine-associated receptor 1; experiment: Counterscreen for agonists of the human trace amine associated receptor 1 (hTAAR1): Fluorescence-based cell-based high throughput dose response assay to identify hTAAR1 agonist that also desensitize TAAR1 receptor response.; format: functional
cells [22] = format: functional, cell-based; remark: listed apart in the source

T3 sequence (Q79MP6 whole entry): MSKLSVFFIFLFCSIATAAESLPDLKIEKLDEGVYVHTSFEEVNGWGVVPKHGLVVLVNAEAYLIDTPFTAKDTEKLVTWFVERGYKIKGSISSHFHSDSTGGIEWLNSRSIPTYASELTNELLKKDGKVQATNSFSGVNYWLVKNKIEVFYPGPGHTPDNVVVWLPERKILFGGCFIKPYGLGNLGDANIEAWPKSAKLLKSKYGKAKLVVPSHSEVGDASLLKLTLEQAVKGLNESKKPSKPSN
Sequence of Disintegrin and metalloproteinase domain-containing protein 17 (P78536 whole entry, the tested form may be a part): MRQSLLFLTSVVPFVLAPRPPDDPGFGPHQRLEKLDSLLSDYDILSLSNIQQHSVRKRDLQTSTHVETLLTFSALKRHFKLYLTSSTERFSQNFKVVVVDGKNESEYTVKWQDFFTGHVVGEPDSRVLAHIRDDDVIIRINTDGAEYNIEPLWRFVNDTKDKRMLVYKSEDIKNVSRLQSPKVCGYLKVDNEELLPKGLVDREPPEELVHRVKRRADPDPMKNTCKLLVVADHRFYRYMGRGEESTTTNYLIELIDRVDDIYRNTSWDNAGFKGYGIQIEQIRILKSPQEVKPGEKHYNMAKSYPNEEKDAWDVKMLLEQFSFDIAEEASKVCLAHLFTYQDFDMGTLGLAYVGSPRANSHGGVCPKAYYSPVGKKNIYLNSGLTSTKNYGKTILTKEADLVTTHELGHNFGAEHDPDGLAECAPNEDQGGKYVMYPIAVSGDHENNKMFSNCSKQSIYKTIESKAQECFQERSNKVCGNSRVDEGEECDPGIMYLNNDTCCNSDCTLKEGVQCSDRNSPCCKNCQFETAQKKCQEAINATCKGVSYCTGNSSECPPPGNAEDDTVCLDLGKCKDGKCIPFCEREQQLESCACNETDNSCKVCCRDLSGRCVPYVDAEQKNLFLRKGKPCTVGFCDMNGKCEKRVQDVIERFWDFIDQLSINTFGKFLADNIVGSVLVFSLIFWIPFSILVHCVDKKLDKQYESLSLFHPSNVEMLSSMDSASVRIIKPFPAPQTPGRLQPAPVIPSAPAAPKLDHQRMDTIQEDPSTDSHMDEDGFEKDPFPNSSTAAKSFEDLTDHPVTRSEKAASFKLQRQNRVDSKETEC
Sequence of Beta-lactamase (Salmonella choleraesuis (strain SC-B67), UniProt Q5J463) (Q5J463 whole entry): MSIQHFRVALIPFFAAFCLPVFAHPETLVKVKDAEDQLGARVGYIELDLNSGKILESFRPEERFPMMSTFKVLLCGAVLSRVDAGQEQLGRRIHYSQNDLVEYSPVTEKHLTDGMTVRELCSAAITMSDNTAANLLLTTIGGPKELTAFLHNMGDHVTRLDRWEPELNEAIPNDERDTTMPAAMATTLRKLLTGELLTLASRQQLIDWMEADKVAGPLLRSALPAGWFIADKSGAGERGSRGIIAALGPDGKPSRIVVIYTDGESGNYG
Sequence of Protein-tyrosine kinase 2-beta (Q14289 whole entry): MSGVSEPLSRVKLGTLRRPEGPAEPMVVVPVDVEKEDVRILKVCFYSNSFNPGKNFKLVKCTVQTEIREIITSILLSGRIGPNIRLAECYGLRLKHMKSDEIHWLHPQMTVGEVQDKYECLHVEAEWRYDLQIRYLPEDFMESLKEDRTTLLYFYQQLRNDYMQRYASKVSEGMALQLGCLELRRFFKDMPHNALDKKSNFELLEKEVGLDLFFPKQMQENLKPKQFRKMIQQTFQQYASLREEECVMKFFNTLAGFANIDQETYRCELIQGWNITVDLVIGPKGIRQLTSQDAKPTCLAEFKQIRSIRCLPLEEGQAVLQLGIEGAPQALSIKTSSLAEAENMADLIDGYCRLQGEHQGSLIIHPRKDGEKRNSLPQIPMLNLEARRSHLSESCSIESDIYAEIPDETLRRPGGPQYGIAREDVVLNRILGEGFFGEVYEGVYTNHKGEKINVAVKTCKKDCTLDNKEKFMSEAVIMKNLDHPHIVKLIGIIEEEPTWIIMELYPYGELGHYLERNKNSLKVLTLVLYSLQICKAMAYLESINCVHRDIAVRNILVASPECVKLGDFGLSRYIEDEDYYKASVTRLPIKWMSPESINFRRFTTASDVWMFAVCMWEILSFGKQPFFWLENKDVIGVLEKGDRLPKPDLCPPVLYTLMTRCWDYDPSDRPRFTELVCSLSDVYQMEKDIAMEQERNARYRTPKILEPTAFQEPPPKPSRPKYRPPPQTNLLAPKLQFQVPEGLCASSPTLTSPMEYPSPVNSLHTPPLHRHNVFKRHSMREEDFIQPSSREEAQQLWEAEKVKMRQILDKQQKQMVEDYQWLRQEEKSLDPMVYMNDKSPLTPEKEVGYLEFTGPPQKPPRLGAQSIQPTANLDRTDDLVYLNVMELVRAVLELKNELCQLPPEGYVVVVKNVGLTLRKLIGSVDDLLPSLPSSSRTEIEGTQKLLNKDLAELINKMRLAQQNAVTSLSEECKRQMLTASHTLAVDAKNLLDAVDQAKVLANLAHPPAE
Sequence of NAD-dependent protein deacylase sirtuin-5, mitochondrial (Q9NXA8 whole entry): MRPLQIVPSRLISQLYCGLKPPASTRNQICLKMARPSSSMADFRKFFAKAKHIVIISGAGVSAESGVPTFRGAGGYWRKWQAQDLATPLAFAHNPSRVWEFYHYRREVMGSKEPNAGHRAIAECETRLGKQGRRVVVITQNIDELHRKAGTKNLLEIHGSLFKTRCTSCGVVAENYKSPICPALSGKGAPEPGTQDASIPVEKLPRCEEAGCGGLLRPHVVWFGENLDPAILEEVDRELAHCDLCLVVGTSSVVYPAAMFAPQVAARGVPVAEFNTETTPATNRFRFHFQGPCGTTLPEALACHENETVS
Sequence of G-protein coupled receptor 35 (Q9HC97 whole entry): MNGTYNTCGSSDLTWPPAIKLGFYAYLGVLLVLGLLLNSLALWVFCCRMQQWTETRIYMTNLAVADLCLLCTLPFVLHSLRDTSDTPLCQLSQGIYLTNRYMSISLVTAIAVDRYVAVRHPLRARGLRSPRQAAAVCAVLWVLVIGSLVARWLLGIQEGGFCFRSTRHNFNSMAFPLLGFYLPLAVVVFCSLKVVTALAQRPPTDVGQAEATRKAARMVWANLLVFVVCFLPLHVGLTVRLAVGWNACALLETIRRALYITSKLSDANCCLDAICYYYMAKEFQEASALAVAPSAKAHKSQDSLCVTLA
Sequence of Galanin receptor type 3 (O60755 whole entry): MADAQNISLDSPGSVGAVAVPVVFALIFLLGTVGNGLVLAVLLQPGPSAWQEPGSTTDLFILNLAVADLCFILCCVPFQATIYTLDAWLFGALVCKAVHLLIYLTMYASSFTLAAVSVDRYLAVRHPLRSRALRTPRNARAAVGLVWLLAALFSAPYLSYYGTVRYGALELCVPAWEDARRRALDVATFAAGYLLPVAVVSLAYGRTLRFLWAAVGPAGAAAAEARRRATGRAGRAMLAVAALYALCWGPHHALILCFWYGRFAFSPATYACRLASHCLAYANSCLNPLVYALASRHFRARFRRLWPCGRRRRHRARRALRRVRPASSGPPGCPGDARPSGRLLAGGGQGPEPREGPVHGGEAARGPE
Sequence of COUP transcription factor 2 (P24468 whole entry): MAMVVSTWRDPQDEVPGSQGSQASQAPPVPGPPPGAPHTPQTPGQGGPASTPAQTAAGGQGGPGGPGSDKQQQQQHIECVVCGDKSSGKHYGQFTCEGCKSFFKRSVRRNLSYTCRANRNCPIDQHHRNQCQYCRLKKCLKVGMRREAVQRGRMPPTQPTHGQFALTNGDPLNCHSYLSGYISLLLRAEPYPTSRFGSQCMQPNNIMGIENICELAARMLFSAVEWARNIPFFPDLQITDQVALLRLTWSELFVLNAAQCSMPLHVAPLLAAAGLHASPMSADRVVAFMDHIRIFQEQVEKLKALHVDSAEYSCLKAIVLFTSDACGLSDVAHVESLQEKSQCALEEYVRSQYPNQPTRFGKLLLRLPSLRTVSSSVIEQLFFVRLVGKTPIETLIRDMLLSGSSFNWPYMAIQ
Sequence of Cytochrome P450 2D6 (P10635 whole entry): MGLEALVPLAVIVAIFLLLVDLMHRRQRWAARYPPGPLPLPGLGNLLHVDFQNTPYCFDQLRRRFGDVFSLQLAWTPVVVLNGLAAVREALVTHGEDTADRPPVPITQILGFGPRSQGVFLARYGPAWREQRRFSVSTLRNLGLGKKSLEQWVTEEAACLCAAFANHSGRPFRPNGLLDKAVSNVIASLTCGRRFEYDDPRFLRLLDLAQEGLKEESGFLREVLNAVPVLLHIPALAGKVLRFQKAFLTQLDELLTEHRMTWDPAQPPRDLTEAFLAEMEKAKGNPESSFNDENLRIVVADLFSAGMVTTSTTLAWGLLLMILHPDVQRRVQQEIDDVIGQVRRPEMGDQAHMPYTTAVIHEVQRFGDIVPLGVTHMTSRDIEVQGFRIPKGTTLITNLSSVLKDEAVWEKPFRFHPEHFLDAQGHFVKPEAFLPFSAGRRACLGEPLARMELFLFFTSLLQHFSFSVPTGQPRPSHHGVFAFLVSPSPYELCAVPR

CC1=CC(=Cc2sc3ccccc3[n+]2C)C=C(C)N1CC1CCCO1 (configuration not stated)
IC50 [1]: 1.44 µM (active)
IC50 [2]: > 80 µM (inactive)
AC50 [3]: 1.82 µM (active)
AC50 (A-375): 24.4 µM (active)
IC50 [4]: 4.97 µM (active)

COc1ccc(C2CC(O)(c3ccccc3)Oc3c(C)ccc(C)c32)cc1 (configuration not stated)
EC50 [5]: > 150 µM (not active)
EC50 (Streptokinase A): > 150 µM (not active)
EC50 (Streptococcus): > 150 µM (not active)
IC50 [6]: > 69.5 µM (inactive)
IC50 [7]: 12.7 µM (inactive)
CC50 [8]: 28.5 µM (active)

CC(Oc1ccc(Cl)cc1)c1ccnn1S(=O)(=O)c1ccccc1 (configuration not stated)
EC50 [9]: 17.4 µM (active)
EC50 [10]: > 120 µM (not active)
EC50 [11]: > 120 µM (not active)
IC50 [6]: > 69.5 µM (inactive)
IC50 [7]: 66.4 µM (inactive)
AC50 (Cytochrome P450 2D6): 14.1 µM (inconclusive)

COc1ccccc1-c1n[nH]c(=S)n1Cc1ccco1
IC50 (Beta-lactamase [12]): > 59.6 µM (inactive)
IC50 (Beta-lactamase [13]): > 59.6 µM (inactive)
IC50 (Beta-lactamase [14]): > 59.6 µM (inactive)

C=CCSc1nnc(NC(=O)c2cn(CC)c3nc(C)ccc3c2=O)s1
AC50 [15]: > 30 µM (inactive)

COc1cccc2[nH]c3c(N4CCC(C)CC4)ncnc3c12
IC50 (Galanin receptor type 3): 0.379 µM (active)
EC50 (cells [16]): > 29.9 µM (inactive)

O=P(O)(O)c1ccccc1OCCCCCOc1ccccc1P(=O)(O)O
IC50 (Beta-lactamase [12]): > 59.6 µM (inactive)
IC50 (Beta-lactamase [13]): > 59.6 µM (inactive)
IC50 (Beta-lactamase [14]): > 59.6 µM (inactive)
IC50 [17]: 2.23 µM (active)

COc1ccccc1N=C(S)NNC(=O)c1nn(C)cc1Cl
IC50 [18]: > 122 µM (inactive)

O=c1cc(Nc2ccc3c(c2)OCO3)[nH]c(=O)n1-c1ccc(Br)cc1
IC50 (cells [19]): > 29.9 µM (inactive)
EC50 [20]: 5.11 µM (active)
IC50 [21]: 21.9 µM (inactive)
EC50 (cells [22]): > 29.9 µM (inactive)

— ChEMBL document CHEMBL1201862, “PubChem BioAssay data set” (2004)
